From ChEMBL document CHEMBL5154877, “Novel Sphingosine Kinase 1 Inhibitor Suppresses Growth of Solid Tumor and Inhibits the Lung Metastasis of Triple-Negative Breast Cancer” (J Med Chem, 2022)
Active and inactive are the calls of the source. No cut-off for these calls is given here.

Assays:
MDA-MB-231 [1] = experiment: Antimetastatic activity against human MDA-MB-231 cells xenografted in BALB/c mouse assessed as decrease in plasma S1P levels at 75 mg/kg, ip for 28 days; assay type: functional, organism-based; conditions: time 28.0 day
HT-29 [2] = experiment: Induction of apoptosis in human HT-29 cells at 30 uM incubated for 48 hrs by Annexin V-FITC/PI staining based flow cytometry relative to control; assay type: functional
MDA-MB-231 [3] = experiment: Induction of apoptosis in human MDA-MB-231 cells assessed as late apoptotic cells at 30 uM incubated for 48 hrs by Annexin V-FITC/PI staining based flow cytometry (reference value: 1.96 %); assay type: functional
MDA-MB-231 [4] = experiment: Induction of apoptosis in human MDA-MB-231 cells assessed as early apoptotic cells at 30 uM incubated for 48 hrs by Annexin V-FITC/PI staining based flow cytometry (reference value: 2.35 %); assay type: functional
HT-29 [5] = experiment: Induction of apoptosis in human HT-29 cells assessed as increase in caspase 8 cleavage at 30 uM measured after 48 hrs by western blot analysis; assay type: functional, cell-based
[6] = Cmax in mouse at 50 mg/kg, ip; assay type: ADME, organism-based; parameters: dose 50 mg/kg, route ip; conditions: in vivo
[7] = Toxicity in BALB/c mouse xenografted with human MDA-MB-231 cells assessed as body weight change at 50 to 75 mg/kg, ip administrated for 28 days; assay type: organism-based; conditions: in vivo, 672 h, dose 50-75 mg/kg, time 28 day
MDA-MB-231 [8] = experiment: Antitumor activity against human MDA-MB-231 cells xenografted in BALB/c mouse assessed as tumor growth inhibition at 100 mg/kg/day, ip for 3 weeks and measured every 3 days by caliper method; assay type: functional, organism-based
[9] = Toxicity in BALB/c mouse xenografted with human HT-29 cells assessed as change in body weight at 50 mg/kg/day, ip for 3 weeks and measured every 3 days; assay type: organism-based; conditions: in vivo, 504 h
MDA-MB-231 [10] = experiment: Induction of apoptosis in human MDA-MB-231 cells assessed as necrotic cells at 10 uM incubated for 48 hrs by Annexin V-FITC/PI staining based flow cytometry (reference value: 1.42 %); assay type: functional
MDA-MB-231 [11] = experiment: Induction of apoptosis in human MDA-MB-231 cells assessed as early apoptotic cells at 10 uM incubated for 48 hrs by Annexin V-FITC/PI staining based flow cytometry (reference value: 2.35 %); assay type: functional
HT-29 [12] = experiment: Induction of cell cycle arrest in human HT-29 cells assessed as accumulation at G0/G1 phase at 30 uM incubated for 24 hrs by PI staining based flow cytometry; assay type: functional
[13] = Half life in mouse at 50 mg/kg, po; assay type: ADME, organism-based; conditions: in vivo
[14] = Half life in mouse at 50 mg/kg, ip; assay type: ADME, organism-based; conditions: in vivo
HT-29 [15] = experiment: Induction of cell cycle arrest at G0/G1 phase in human HT-29 cells assessed as decrease in p-Rb expression at 10 to 30 uM incubated for 24 hrs by Western blot analysis; assay type: functional, cell-based; conditions: dose 10-30 µM
[16] = Tmax in mouse at 50 mg/kg, po; assay type: ADME, organism-based; conditions: in vivo
MDA-MB-231 [17] = experiment: Antimetastatic activity against human MDA-MB-231 cells […] assessed as upregulation of phosphorylated beta-catenin at 30 uM incubated for 2 to 12 hrs by western blot analysis; assay type: functional, cell-based; conditions: time 2-12 hrs
MDA-MB-231 [18] = experiment: Induction of apoptosis in human MDA-MB-231 cells assessed as viable cells at 10 uM incubated for 48 hrs by Annexin V-FITC/PI staining based flow cytometry (reference value: 94.3 %); assay type: functional; conditions: read-out: Activity
[19] = Cmax in mouse at 50 mg/kg, po; assay type: ADME, organism-based; parameters: dose 50 mg/kg, route po; conditions: in vivo
MDA-MB-231 [20] = experiment: Antimigratory activity against human MDA-MB-231 cells assessed as reduction in cell migration at 20 uM incubated for 8 hrs by crystal violet staining microscopy based transwell migration assay; assay type: functional
HT-29 [21] = experiment: Induction of cell cycle arrest at G0/G1 phase in human HT-29 cells assessed as reduction in cyclinA expression at 10 to 30 uM incubated for 24 hrs by Western blot analysis; assay type: functional, cell-based; conditions: dose 10-30 µM
MDA-MB-231 [22] = experiment: Antimigratory activity against human MDA-MB-231 cells assessed as inhibition of cell migration in human MDA-MB-231 cells at 20 uM incubated for 15 hrs by wound healing assay; assay type: functional, cell-based
HT-29 [23] = experiment: Induction of cell cycle arrest in human HT-29 cells assessed as accumulation at G0/G1 phase at 10 uM incubated for 24 hrs by PI staining based flow cytometry; assay type: functional
HT-29 [24] = experiment: Induction of cell cycle arrest at G1 phase in human HT-29 cells assessed as increase in P21 expression at 30 uM incubated for 24 hrs by Western blot analysis; assay type: functional, cell-based
MDA-MB-231 [25] = experiment: Induction of apoptosis in human MDA-MB-231 cells assessed as necrotic cells at 30 uM incubated for 48 hrs by Annexin V-FITC/PI staining based flow cytometry (reference value: 1.42 %); assay type: functional
[26] = Half life in mouse at 2 mg/kg, iv; assay type: ADME, organism-based; conditions: in vivo
HT-29 [27] = experiment: Induction of cell cycle arrest at G0/G1 phase in human HT-29 cells assessed as reduction in cyclinE1 expression at 10 to 30 uM incubated for 24 hrs by Western blot analysis; assay type: functional, cell-based; conditions: dose 10-30 µM
MDA-MB-231 [28] = experiment: Antimetastatic activity against human MDA-MB-231 cells […] assessed as inhibition of FSCN1 phosphorylation at 30 uM incubated for 2 to 12 hrs by western blot analysis; assay type: functional, cell-based; conditions: time 2-12 hrs
HT-29 [29] = experiment: Antitumor activity against human HT-29 cells xenografted in BALB/c mouse assessed as tumor growth inhibition at 50 mg/kg/day, ip for 3 weeks and measured every 3 days by caliper method; assay type: functional, organism-based
[30] = Clearance in mouse at 2 mg/kg, iv; assay type: ADME, organism-based; conditions: in vivo
MDA-MB-231 [31] = experiment: Antimetastatic activity against human MDA-MB-231 cells […] assessed as inhibition of NF-kappaB p65 phosphorylation at 30 uM incubated for 2 to 12 hrs by Western blot analysis; assay type: functional, cell-based; conditions: time 2-12 hrs
[32] = Bioavailability in mouse at 50 mg/kg, ip; assay type: ADME, organism-based; conditions: in vivo
MDA-MB-231 [33] = experiment: Induction of apoptosis in human MDA-MB-231 cells assessed as late apoptotic cells at 10 uM incubated for 48 hrs by Annexin V-FITC/PI staining based flow cytometry (reference value: 1.96 %); assay type: functional
[34] = AUClast in mouse at 50 mg/kg, ip; assay type: ADME, organism-based; parameters: time 0 - last, dose 50 mg/kg, route ip; conditions: in vivo
HT-29 [35] = experiment: Induction of cell cycle arrest at G0/G1 phase in human HT-29 cells assessed as reduction in cyclinD1 expression at 10 to 30 uM incubated for 24 hrs by Western blot analysis; assay type: functional, cell-based; conditions: dose 10-30 µM
[36] = AUClast in mouse at 50 mg/kg, po; assay type: ADME, organism-based; parameters: time 0 - last, dose 50 mg/kg, route po; conditions: in vivo
[37] = Oral bioavailability in mouse at 50 mg/kg; assay type: ADME, organism-based; conditions: in vivo
HT-29 [38] = experiment: Induction of apoptosis in human HT-29 cells assessed as increase in PARP cleavage at 30 uM measured after 48 hrs by western blot analysis; assay type: functional, cell-based
HT-29 [39] = experiment: Induction of cell cycle arrest at G0/G1 phase in human HT-29 cells assessed as reduction in CDK6 expression at 10 to 30 uM incubated for 24 hrs by Western blot analysis; assay type: functional, cell-based; conditions: dose 10-30 µM
HT-29 [40] = experiment: Induction of apoptosis in human HT-29 cells assessed as increase in caspase 3 cleavage at 30 uM measured after 48 hrs by western blot analysis; assay type: functional, cell-based
[41] = Tmax in mouse at 50 mg/kg, ip; assay type: ADME, organism-based; conditions: in vivo
MDA-MB-231 [42] = experiment: Antimetastatic activity against human MDA-MB-231 cells xenografted in BALB/c mouse assessed as decrease in plasma S1P levels at 50 mg/kg, ip for 28 days; assay type: functional, organism-based; conditions: time 28.0 day
MDA-MB-231 [43] = experiment: Induction of apoptosis in human MDA-MB-231 cells assessed as viable cells at 30 uM incubated for 48 hrs by Annexin V-FITC/PI staining based flow cytometry (reference value: 94.3 %); assay type: functional; conditions: read-out: Activity
MDA-MB-231 [44] = experiment: Induction of cell cycle arrest at G0/G1 phase in human MDA-MB-231 cells at 20 uM incubated for 24 hrs by PI staining based flow cytometry; assay type: functional
[45] = AUClast in mouse at 2 mg/kg, iv; assay type: ADME, organism-based; parameters: time 0 - last, dose 2 mg/kg, route iv; conditions: in vivo
CAL-51 = experiment: Antimigratory activity against human CAL-51 cells assessed as inhibition in cell migration at 30 uM incubated for 16 hrs by crystal violet staining microscopy based transwell migration assay; assay type: functional
MDA-MB-231 [46] = experiment: Antimetastatic activity against human MDA-MB-231 cells […] assessed as downregulation of MMP-9 at 30 uM incubated for 2 to 12 hrs by western blot analysis; assay type: functional, cell-based; conditions: time 2-12 hrs
MDA-MB-231 [47] = experiment: Antitumor activity against human MDA-MB-231 cells xenografted in BALB/c mouse assessed as inhibition in lung metastasis at 75 mg/kg, ip treated for 28 days by H and E staining based assay; assay type: functional, organism-based; conditions: time 28.0 day

Q: Which results are given for Cc1cc(OCc2ccc(CN3CCC[C@@H]3CO)cc2)cc(CS(=O)(=O)c2ccccc2)c1Br?
A: Activity (MDA-MB-231 [1]): Active; Activity (HT-29 [2]): 50%; Activity (MDA-MB-231 [3]): 24.5%; Activity (MDA-MB-231 [4]): 32.2%; Activity (HT-29 [5]): Active; Cmax [6]: 7860 ng/mL; Activity [7]: Non-Toxic; Activity (MDA-MB-231 [8]): Active; Activity [9]: Non-Toxic; Activity (MDA-MB-231 [10]): 3.69%; Activity (MDA-MB-231 [11]): 3.67%; Activity (HT-29 [12]): Active; half-life [13]: 8.13 h; half-life [14]: 4.2 h; Activity (HT-29 [15]): Active; Tmax [16]: 0.83 h; Activity (MDA-MB-231 [17]): Active; viability at 10 µM (MDA-MB-231 [18]): 65.4%; Cmax [19]: 171 ng/mL; Activity (MDA-MB-231 [20]): Active; Activity (HT-29 [21]): Active; Activity (MDA-MB-231 [22]): Active; Activity (HT-29 [23]): Active; Activity (HT-29 [24]): Active; Activity (MDA-MB-231 [25]): 6.82%; half-life [26]: 2.23 h; Activity (HT-29 [27]): Active; Activity (MDA-MB-231 [28]): Active; Activity (HT-29 [29]): Active; clearance [30]: 81.1 mL/min/kg; Activity (MDA-MB-231 [31]): Active; bioavailability [32]: 79%; Activity (MDA-MB-231 [33]): 9.16%; AUC(0-t) [34]: 8060 ng·h/mL; Activity (HT-29 [35]): Active; AUC(0-t) [36]: 242 ng·h/mL; bioavailability [37]: 2.38%; Activity (HT-29 [38]): Active; Activity (HT-29 [39]): Active; Activity (HT-29 [40]): Active; Tmax [41]: 0.18 h; Activity (MDA-MB-231 [42]): Active; viability at 30 µM (MDA-MB-231 [43]): 36.4%; Activity (MDA-MB-231 [44]): Active; AUC(0-t) [45]: 408 ng·h/mL; Activity (CAL-51): Active; Activity (MDA-MB-231 [46]): Active; Activity (MDA-MB-231 [47]): Active
